These results are taken from patent publication US12059420B2 (BRISTOL-MYERS SQUIBB COMPANY, priority 2018, dated 2024).

Structures are written as SMILES.

The IC50 is the point on the concentration scale where inhibition reaches its midpoint.

The target in this test is T1, human IDO1 (Homo sapiens, UniProt P14902).
T1 construct: expressed in transfected cells
T1 sequence (P14902 whole entry): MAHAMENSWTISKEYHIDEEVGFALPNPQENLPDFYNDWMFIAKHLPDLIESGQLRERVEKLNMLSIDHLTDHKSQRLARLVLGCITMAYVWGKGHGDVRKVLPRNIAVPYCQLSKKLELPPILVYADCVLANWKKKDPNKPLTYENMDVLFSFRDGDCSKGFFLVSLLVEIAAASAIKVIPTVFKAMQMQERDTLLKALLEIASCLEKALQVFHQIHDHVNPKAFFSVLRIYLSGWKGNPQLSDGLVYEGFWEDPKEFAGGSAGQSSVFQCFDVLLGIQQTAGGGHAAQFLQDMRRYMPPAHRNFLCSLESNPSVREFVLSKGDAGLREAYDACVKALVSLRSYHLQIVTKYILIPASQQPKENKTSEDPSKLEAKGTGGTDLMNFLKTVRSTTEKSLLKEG
The test can be described thus: IDO inhibition assay in HEK293 cells stably expressing human IDO1 (kynurenine production, Ehrlich reagent, absorbance 490 nm). Format: cell-based. The conditions noted are these: 20 hours incubation with compound, 500 nM reference standard = 100% inhibition, read-out: IDO1 HEK Human IC50. Put shortly:
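HEK293 clones stably expressing human IDO1 (10,000 cells/well, phenol red-free RPMI, 10% FBS) were treated with compound for 20 hours at 37° C. After 0.2% TCA and 30 min at 50° C., kynurenine was read with Ehrlich reagent at 490 nm. IC50 was normalised to DMSO (0%) and 500 nM reference standard (100%).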
Take `Cc1ccc(Nc2cc(-c3ccccc3-c3nnn[nH]3)nc(N(Cc3ccccc3)CC(C)C)c2)nc1` [Example 142, 6-(2-(1H-tetrazol-5-yl)phenyl)-N2-benzyl-N2-isobutyl-N4-(5-methylpyridin-2-yl)pyridine-2,4-diamine]: the IC50 is 36.8 nM.

For the compound `CC(C)CN(Cc1ccccc1)c1cc(Nc2ccc(C(N)=O)cc2)cc(-c2ccccc2-c2nnn[nH]2)n1` [Example 144, 4-((2-(2-(1H-tetrazol-5-yl)phenyl)-6-(benzyl(isobutyl)amino)pyridin-4-yl)amino)benzamide], the IC50 worked out at 665 nM.

Regarding `Cc1ccnc(Nc2cc(-c3ccccc3-c3nnn[nH]3)nc(N(Cc3ccccc3)CC(C)C)c2)n1` [Example 145, 6-(2-(1H-tetrazol-5-yl)phenyl)-N2-benzyl-N2-isobutyl-N4-(4-methylpyrimidin-2-yl)pyridine-2,4-diamine], the half-maximal inhibitory concentration (IC50) worked out at 73.6 nM.

On to `Cc1ccc(Nc2cc(-c3ccccc3-c3nnn[nH]3)nc(N(Cc3ccccc3)CC(C)C)c2)c(F)c1` [Example 147, 6-(2-(1H-tetrazol-5-yl)phenyl)-N2-benzyl-N4-(2-fluoro-4-methylphenyl)-N2-isobutylpyridine-2,4-diamine], for which the IC50 was 7.3 nM.

Regarding `Cc1ccc(Nc2cc(-c3ccccc3-c3nnn[nH]3)nc(N(Cc3ccccc3)CC(C)C)c2)cc1` [Example 148, 6-(2-(1H-tetrazol-5-yl)phenyl)-N2-benzyl-N2-isobutyl-N4-(p-tolyl)pyridine-2,4-diamine], the IC50 turned out to be 4.8 nM.

For `CCCc1cnc(Nc2cc(-c3ccccc3-c3nnn[nH]3)nc(N(Cc3ccccc3)CC(C)C)c2)nc1` [Example 149, 6-(2-(1H-tetrazol-5-yl)phenyl)-N2-benzyl-N2-isobutyl-N4-(5-propylpyrimidin-2-yl)pyridine-2,4-diamine], the IC50 came out at 17.6 nM.

Turning to `CC(C)CN(Cc1ccccc1)c1cc(Nc2ccc(C#N)cn2)cc(-c2ccccc2-c2nnn[nH]2)n1` [Example 150, 6-((2-(2-(1H-tetrazol-5-yl)phenyl)-6-(benzyl(isobutyl)amino)pyridin-4-yl)amino)nicotinonitrile], the IC50 was 23.9 nM.

On to `CC(C)CN(Cc1ccccc1)c1cc(Nc2nc(C(F)(F)F)ccc2F)cc(-c2ccccc2-c2nnn[nH]2)n1` [Example 151, 6-(2-(1H-tetrazol-5-yl)phenyl)-N2-benzyl-N4-(3-fluoro-6-(trifluoromethyl)pyridin-2-yl)-N2-isobutylpyridine-2,4-diamine], for which the IC50 amounted to 279 nM.

For `Cc1cc(F)cnc1Nc1cc(-c2ccccc2-c2nnn[nH]2)nc(N(Cc2ccccc2)CC(C)C)c1` [Example 152, 6-(2-(1H-tetrazol-5-yl)phenyl)-N2-benzyl-N4-(5-fluoro-3-methylpyridin-2-yl)-N2-isobutylpyridine-2,4-diamine], the IC50 came to 129 nM.

Consider `CC(C)CN(Cc1ccccc1)c1cc(Nc2ccc3ccccc3n2)cc(-c2ccccc2-c2nnn[nH]2)n1` [Example 154, 6-(2-(1H-tetrazol-5-yl)phenyl)-N2-benzyl-N2-isobutyl-N4-(quinolin-2-yl)pyridine-2,4-diamine], for which the IC50 came to 54 nM.

With `CC(C)CN(Cc1ccccc1)c1cc(Nc2ccnc3ccnn23)cc(-c2ccccc2-c2nnn[nH]2)n1` [Example 155, 6-(2-(1H-tetrazol-5-yl)phenyl)-N2-benzyl-N2-isobutyl-N4-(pyrazolo[1,5-a]pyrimidin-7-yl)pyridine-2,4-diamine], the IC50 stood at 131 nM.

Turning to `CC(C)CN(Cc1ccccc1)c1cc(Nc2nc3ccc(F)cc3s2)cc(-c2ccccc2-c2nnn[nH]2)n1` [Example 156, 6-(2-(1H-tetrazol-5-yl)phenyl)-N2-benzyl-N4-(6-fluorobenzo[d]thiazol-2-yl)-N2-isobutylpyridine-2,4-diamine], the half-inhibitory concentration (IC50) was 115 nM.

In the case of `Cc1ccc(Nc2cc(-c3ccccc3-c3nnn[nH]3)nc(N(Cc3ccccc3)CC(C)C)c2)nn1` [Example 157, 6-(2-(1H-tetrazol-5-yl)phenyl)-N2-benzyl-N2-isobutyl-N4-(6-methylpyridazin-3-yl)pyridine-2,4-diamine], the IC50 is 540 nM.

On to `CC(C)CN(Cc1ccccc1)c1cc(Nc2ncc(C(C)C)cn2)cc(-c2ccccc2-c2nnn[nH]2)n1` [Example 158, 6-(2-(1H-tetrazol-5-yl)phenyl)-N2-benzyl-N2-isobutyl-N4-(5-isopropylpyrimidin-2-yl)pyridine-2,4-diamine], for which the IC50 was 444 nM.

`CC(C)CN(Cc1ccccc1)c1cc(Nc2ncc(C(N)=O)cc2F)cc(-c2ccccc2-c2nnn[nH]2)n1` [Example 159, 6-((2-(2-(1H-tetrazol-5-yl)phenyl)-6-(benzyl(isobutyl)amino)pyridin-4-yl)amino)-5-fluoronicotinamide]: the IC50 was 275 nM.

For `CC(C)CN(Cc1ccccc1)c1cc(Nc2cccnc2F)cc(-c2ccccc2-c2nnn[nH]2)n1` [Example 160, 6-(2-(1H-tetrazol-5-yl)phenyl)-N2-benzyl-N4-(2-fluoropyridin-3-yl)-N2-isobutylpyridine-2,4-diamine], the IC50 was 23.4 nM.

Regarding `Cc1nc2ccc(Nc3cc(-c4ccccc4-c4nnn[nH]4)nc(N(Cc4ccccc4)CC(C)C)c3)cc2s1` [Example 161, 6-(2-(1H-tetrazol-5-yl)phenyl)-N2-benzyl-N2-isobutyl-N4-(2-methylbenzo[d]thiazol-6-yl)pyridine-2,4-diamine], the IC50 was 2.1 nM.

As for `CCc1cnc(Nc2cc(-c3ccccc3-c3nnn[nH]3)nc(N(Cc3ccccc3)CC(C)C)c2)nc1` [Example 162, 6-(2-(1H-tetrazol-5-yl)phenyl)-N2-benzyl-N4-(5-ethylpyrimidin-2-yl)-N2-isobutylpyridine-2,4-diamine], the IC50 came out at 26.2 nM.

`CC(C)CN(Cc1ccccc1)c1cc(Nc2ncccc2C#N)cc(-c2ccccc2-c2nnn[nH]2)n1` [Example 163, 2-((2-(2-(1H-tetrazol-5-yl)phenyl)-6-(benzyl(isobutyl)amino)pyridin-4-yl)amino)nicotinonitrile]: the IC50 came to 736 nM.

Regarding `CC(C)CN(Cc1ccccc1)c1cc(Nc2cnc(Cl)nc2)cc(-c2ccccc2-c2nnn[nH]2)n1` [Example 164, 6-(2-(1H-tetrazol-5-yl)phenyl)-N2-benzyl-N4-(2-chloropyrimidin-5-yl)-N2-isobutylpyridine-2,4-diamine], the IC50 came to 7.9 nM.

As to `CC(C)CN(Cc1ccccc1)c1cc(Nc2ccc3nncn3n2)cc(-c2ccccc2-c2nnn[nH]2)n1` [Example 165, 6-(2-(1H-tetrazol-5-yl)phenyl)-N4-([1,2,4]triazolo[4,3-b]pyridazin-6-yl)-N2-benzyl-N2-isobutylpyridine-2,4-diamine], the IC50 turned out to be 1120 nM.

As for `CC(C)CN(Cc1ccccc1)c1cc(Nc2ccc(C(=O)O)cc2F)cc(-c2ccccc2-c2nnn[nH]2)n1` [Example 166, 4-((2-(2-(1H-tetrazol-5-yl)phenyl)-6-(benzyl(isobutyl)amino)pyridin-4-yl)amino)-3-fluorobenzoic acid], the IC50 was determined as 4050 nM.

As for `Cc1nccnc1Nc1cc(-c2ccccc2-c2nnn[nH]2)nc(N(Cc2ccccc2)CC(C)C)c1` [Example 167, 6-(2-(1H-tetrazol-5-yl)phenyl)-N2-benzyl-N2-isobutyl-N4-(3-methylpyrazin-2-yl)pyridine-2,4-diamine], the IC50 came to 206 nM.

On to `Cc1cccnc1Nc1cc(-c2ccccc2-c2nnn[nH]2)nc(N(Cc2ccccc2)CC(C)C)c1` [Example 168, 6-(2-(1H-tetrazol-5-yl)phenyl)-N2-benzyl-N2-isobutyl-N4-(3-methylpyridin-2-yl)pyridine-2,4-diamine], for which the IC50 was 393 nM.

In the case of `CC(C)CN(Cc1ccccc1)c1cc(Nc2ccc(F)c(Cl)c2)cc(-c2ccccc2-c2nnn[nH]2)n1` [Example 169, 6-(2-(1H-tetrazol-5-yl)phenyl)-N2-benzyl-N4-(3-chloro-4-fluorophenyl)-N2-isobutylpyridine-2,4-diamine], the IC50 is 11.1 nM.

Turning to `CC(C)CN(Cc1ccccc1)c1cc(Nc2ccc(F)cc2)cc(-c2ccccc2-c2nnn[nH]2)n1` [Example 170, 6-(2-(1H-tetrazol-5-yl)phenyl)-N2-benzyl-N4-(4-fluorophenyl)-N2-isobutylpyridine-2,4-diamine], the IC50 was found to be 4.9 nM.

As to `CC(C)CN(Cc1ccccc1)c1cc(Nc2ccc(Cl)cc2)cc(-c2ccccc2-c2nnn[nH]2)n1` [Example 171, 6-(2-(1H-tetrazol-5-yl)phenyl)-N2-benzyl-N4-(4-chlorophenyl)-N2-isobutylpyridine-2,4-diamine], the IC50 worked out at 1.1 nM.

Consider `COc1cnc(Nc2cc(-c3ccccc3-c3nnn[nH]3)nc(N(Cc3ccccc3)CC(C)C)c2)nc1` [Example 172, 6-(2-(1H-tetrazol-5-yl)phenyl)-N2-benzyl-N2-isobutyl-N4-(5-methoxypyrimidin-2-yl)pyridine-2,4-diamine], for which the IC50 came out at 14.4 nM.

With `CC(C)CN(Cc1ccccc1)c1cc(Nc2ncnc3[nH]ccc23)cc(-c2ccccc2-c2nnn[nH]2)n1` [Example 173, 6-(2-(1H-tetrazol-5-yl)phenyl)-N2-benzyl-N2-isobutyl-N4-(7H-pyrrolo[2,3-d]pyrimidin-4-yl)pyridine-2,4-diamine], the IC50 amounted to 259 nM.

Regarding `CC(C)CN(Cc1ccccc1)c1cc(Nc2ccc(Cl)cc2Cl)cc(-c2ccccc2-c2nnn[nH]2)n1` [Example 174, 6-(2-(1H-tetrazol-5-yl)phenyl)-N2-benzyl-N4-(2,4-dichlorophenyl)-N2-isobutylpyridine-2,4-diamine], the IC50 came out at 16.5 nM.

Consider `Cc1cc(F)ccc1Nc1cc(-c2ccccc2-c2nnn[nH]2)nc(N(Cc2ccccc2)CC(C)C)c1` [Example 175, 6-(2-(1H-tetrazol-5-yl)phenyl)-N2-benzyl-N4-(4-fluoro-2-methylphenyl)-N2-isobutylpyridine-2,4-diamine], for which the IC50 stood at 54.9 nM.

Take `Cc1cc(Nc2cc(-c3ccccc3-c3nnn[nH]3)nc(N(Cc3ccccc3)CC(C)C)c2)ccc1C#N` [Example 176, 4-((2-(2-(1H-tetrazol-5-yl)phenyl)-6-(benzyl(isobutyl)amino)pyridin-4-yl)amino)-2-methylbenzonitrile]: the IC50 amounted to 10.5 nM.
